Results taken from EP4259152B1, “CEMTIRESTAT DISULFIDE, PRODRUG OF ALDO-KETO REDUCTASE INHIBITOR, PREPARATION, PHARMACEUTICAL COMPOSITION AND USE THEREOF” (Centrum Experimentálnej Medicíny SAV, v.v.i., priority 2020, dated 2022).
Read-outs that look alike come from different tables or passages of the source.

Columns and labels:
AKR1B10 [1] = target: T1, AKR1B10 (Homo sapiens, UniProt O60218); test: Inhibition of aldo-keto reductase AKR1B10; assay type: biochemical; settings: meaning of 'does not interact per se'
T1 sequence (O60218 whole entry, species assumed): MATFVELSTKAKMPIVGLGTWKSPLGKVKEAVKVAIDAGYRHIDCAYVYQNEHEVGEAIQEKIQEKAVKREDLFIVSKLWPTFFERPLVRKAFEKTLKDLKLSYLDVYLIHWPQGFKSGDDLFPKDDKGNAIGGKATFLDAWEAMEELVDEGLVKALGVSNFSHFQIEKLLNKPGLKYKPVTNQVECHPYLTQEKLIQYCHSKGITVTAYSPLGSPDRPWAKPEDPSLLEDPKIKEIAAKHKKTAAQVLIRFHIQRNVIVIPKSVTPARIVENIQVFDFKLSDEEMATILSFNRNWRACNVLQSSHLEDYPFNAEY

AKR1B1 = AKR1B1 (Homo sapiens, UniProt P15121); test: Inhibition of aldo-keto reductase AKR1B1; assay type: biochemical
[2] = Test C: Determination of the distribution ratio in the buffer/octan-1-ol system (shake-flask method); assay type: physicochemical; settings: for D (distribution ratio in the buffer/octan-1-ol system): 100 µM, room temperature, mean ± SD, n=3
Experimental: The partition ratio in the buffer/1-octanol system (system name octan-1-ol), defined as the equilibrium ratio of the total solute concentration in the organic phase to the total solute concentration in the aqueous phase, was determined by the shake-flask method at room temperature. Octan-1-ol saturated with the desired buffer was used as the organic phase for the determination. […] The aqueous solution was shaken with octan-1-ol (20 mL) for 3 hours. Subsequently, the phases were separated in a separatory funnel and the concentration of the solute was determined spectrophotometrically in both phases by means of a calibration curve.

ALR2 = target: T2, ALR2 (Rattus norvegicus, UniProt P07943); test: Test B: Inhibition of ALR2 by disulfide of formula I in the presence of GSH (NADPH consumption at 340 nm); assay type: biochemical; settings: disulfide of formula I 100 µM, 67 mM phosphate buffer (pH 7.4), 37 °C, measured 2 min after GSH addition
T2 construct: The ALR2 enzyme from rat lenses was isolated by the method of Hayman and Kinoshit; from tissue; host or cells: rat eye lenses
Experimental: Preparation ofALR2. The ALR2 enzyme from rat lenses was isolated by the method of Hayman and Kinoshit (J. Biol. Chem. 240: 877-882, 1965). The homogenate was centrifuged at 10,000 g at 0-4 °C for 20 min. The supernatant was precipitated with saturated ammonium sulfate solution gradually at 40 %, 50 % and finally at 75 % saturation. After the first two precipitations, the supernatant was used. The sediment from the last step, containing ALR2 activity, was resuspended in 75% ammonium sulfate and stored in smaller aliquots in a liquid nitrogen container.
Enzyme test. ALR2 activity was measured spectrophotometrically (Stefek et al.; Bioorg. Med Chem. 16: 4908-4920, 2008) by determining NADPH consumption at 340 nm and expressed as a decrease in optical density (O.D.) / s / mg protein. The reaction mixture contained 4.67 mM D,L-glyceraldehyde as substrate, 0.11 mM NADPH in 67 mM phosphate buffer (pH 7.4), GSH at the desired concentration and 0.05 ml of enzyme preparation a total volume of 1.5 ml. The reference (blank) sample contained all of the above components except D,L-glyceraldehyde substrate and was used to correct for NADPH oxidation unrelated to substrate reduction. Enzyme catalysis was initiated by the addition of D,L-glyceraldehyde and the reaction was monitored for 4 minutes after an initial 1 minute period at 37 °C. The enzyme activity was adjusted by diluting the enzyme preparations with distilled water so that 0.05 ml of the preparation gave an average reaction rate for the control samples in the range of 0.020 ± 0.005 absorbance units / min. The effect of inhibitor on enzyme activity was determined by adding a stock solution of inhibitor in DMSO to the reaction mixture at a final concentration of 100 µM so that the final DMSO concentration was 1%. An inhibitor with the same concentration was added to the reference sample. Enzyme activity was started 2 min after the addition of GSH to the reaction mixture by adding D,L-glyceraldehyde used as a substrate, and I(%) values were determined from the measured absorbance decrease values.

[3] = Test A: Reduction of disulfide of formula I by GSH (cleavage kinetics to form cemtirestat of formula II, absorbance at 302 nm); assay type: physicochemical; settings: mean ± SD, n=3; for Final degree of disulfide of formula I reduction: calculated after reaching the maximum in the 60th second, disulfide 50 µM, pH 7.4, 37 °C; for Initial rate of cemtirestat of formula II formation: disulfide of formula I 50 µM, 20 mM phosphate buffer (pH 7.4) at 37 °C
AKR1B10 [4] = target: T1, AKR1B10; settings: Stefek et al.; J. Med Chem. 58: 2649-57, 2015; cited from earlier work

Row | Compound | IC50 (AKR1B10 [1]) | IC50 (AKR1B1) | water/octanol distribution ratio compared to cemtirestat of formula II ([2]; acidic environment at pH 4.6, fold higher than cemtirestat of formula II) | D (distribution ratio in the buffer/octan-1-ol system) ([2]; pH 4.6, acetate buffer (0.1M) + 0.15 M KCl) | D (distribution ratio in the buffer/octan-1-ol system) ([2]; pH 7.4, phosphate buffer (0.1M) + 0.15 M KCl) | inhibition at 100 µM (ALR2; pH 7.4, GSH added 0 µM) | inhibition at 100 µM (ALR2; pH 7.4, GSH added 5 µM) | inhibition at 100 µM (ALR2; pH 7.4, GSH added 10 µM) | inhibition at 100 µM (ALR2; pH 7.4, GSH added 20 µM) | inhibition at 100 µM (ALR2; pH 7.4, GSH added 40 µM) | inhibition at 100 µM (ALR2; pH 7.4, GSH added 100 µM) | inhibition at 100 µM (ALR2; pH 7.4, GSH added 1000 µM) | inhibition at 100 µM (ALR2; pH 7.4, GSH added 5000 µM) | Final degree of disulfide of formula I reduction ([3]; GSH 25 µM) | Initial rate of cemtirestat of formula II formation ([3]; GSH 25 µM) | Final degree of disulfide of formula I reduction ([3]; GSH 50 µM) | Initial rate of cemtirestat of formula II formation ([3]; GSH 50 µM) | Final degree of disulfide of formula I reduction ([3]; GSH 100 µM) | Initial rate of cemtirestat of formula II formation ([3]; GSH 100 µM) | IC50 (AKR1B10 [4])
1 | O=C(O)Cn1c2ccccc2c2nnc(SSc3nnc4c5ccccc5n(CC(=O)O)c4n3)nc21 [Disulfide of formula I, 2,2'-(disulfanediylbis(5H-[1,2,4]triazino[5,6-b]indole-3,5-diyl))diacetic acid] | > 100 µM | > 100 µM | ~4 fold | 0.1136 ± 0.0022 | 0.0095 ± 0.0019 | < 1% | < 1% | 8.9 ± 0.6% | 12.4 ± 1.4% | 16.1 ± 6.9% | 72.6 ± 9.1% | 94 ± 1.6% | 91.1 ± 1.5% | 39.68 ± 1.59% | 4.46 ± 1.68 nmol/mL/s | 67.70 ± 3.72% | 7.30 ± 1.46 nmol/mL/s | 85.16 ± 5.11% | 9.83 ± 2.09 nmol/mL/s | 
2 | O=C(O)Cn1c2ccccc2c2nnc(S)nc21 [Cemtirestat of formula II, 2-(3-thioxo-2,3-dihydro-5H-[1,2,4]triazino[5,6-b]indol-5-yl)acetic acid] |  |  |  |  |  |  |  |  |  |  |  |  |  |  |  |  |  |  |  | 3.69 ± 0.53 µM
